Data taken from ChEMBL document CHEMBL5053557, “Discovery of Novel Dual-Target Inhibitor of Bromodomain-Containing Protein 4/Casein Kinase 2 Inducing Apoptosis and Autophagy-Associated Cell Death for Triple-Negative Breast Cancer Therapy” (J Med Chem, 2021).
Active and inactive are the calls of the source. The calls are words filed in the database; no cut-off is given here.

Columns and labels:
Mus musculus [1] = assay: Toxicity in nude BALB/c mouse xenografted with human MDA-MB-468 cells assessed as morphological changes in spleen at 25 to 50 mg/kg, po administered once daily for 19 days and measured every 3 days by H and E staining based assay; type: organism-based; conditions: in vivo, 456 h, dose 25-50 mg/kg, time 19 day
MCF-10A = assay: Antiproliferative activity against human MCF-10A cells incubated for 24 hrs by MTT assay; type: cell-based
Mus musculus [2] = assay: Toxicity in nude BALB/c mouse xenografted with human MDA-MB-468 cells assessed as morphological changes in lung at 25 to 50 mg/kg, po administered once daily for 19 days and measured every 3 days by H and E staining based assay; type: organism-based; conditions: in vivo, 456 h, dose 25-50 mg/kg, time 19 day
MDA-MB-231 [3] = assay: Induction of apoptosis in human MDA-MB-231 cells at 5 uM preincubated with 3-MA for 1 hr followed by compound addition and measured after 24 hrs by Annexin V-FITC/propidium iodide staining based flow cytometric analysis; type: functional, cell-based
Mus musculus [4] = assay: Down regulation of c-Myc expression in BALB/c SCID mouse xenogrfted with human MDA-MB-231 cells at 25 to 50 mg/kg, po administered once daily for 19 days by immunohistochemistry analysis; type: functional, organism-based; conditions: dose lower […], dose upper 50.0 mg/kg, time 19.0 day
MDA-MB-231 [5] = assay: Antitumor activity against human MDA-MB-231 cells xenografted in nude BALB/c mouse assessed as tumor growth inhibition at 50 mg/kg, po administered once daily for 19 days and measured every 3 days; type: functional; conditions: MDA-MB-231, 456 h, time 19 day, read-out: TGI
[6] = target: Bromodomain testis-specific protein (Homo sapiens, UniProt Q58F21); assay: Inhibition of BRDT BD1 (unknown origin) incubated for 2 hrs by TR-FRET assay
Mus musculus [7] = assay: Toxicity in nude BALB/c mouse xenografted with human MDA-MB-231 cells assessed as morphological changes in spleen at 25 to 50 mg/kg, po administered once daily for 19 days and measured every 3 days by H and E staining based assay; type: organism-based; conditions: in vivo, 456 h, dose 25-50 mg/kg, time 19 day
Mus musculus [8] = assay: Toxicity in nude BALB/c mouse xenografted with human MDA-MB-231 cells assessed as morphological changes in lung at 25 to 50 mg/kg, po administered once daily for 19 days and measured every 3 days by H and E staining based assay; type: organism-based; conditions: in vivo, 456 h, dose 25-50 mg/kg, time 19 day
Mus musculus [9] = assay: Toxicity in nude BALB/c mouse xenografted with human MDA-MB-231 cells assessed as morphological changes in kidney at 25 to 50 mg/kg, po administered once daily for 19 days and measured every 3 days by H and E staining based assay; type: organism-based; conditions: in vivo, 456 h, dose 25-50 mg/kg, time 19 day
[10] = AUC(0 to infinity) in Sprague-Dawley rat at 10 mg/kg, po by LC-MS analysis; type: ADME, organism-based; parameters: time infinity, dose 10 mg/kg, route po; conditions: in vivo
[11] = target: Bromodomain-containing protein 4 (Homo sapiens, UniProt O60885); assay: Inhibition of BRD4 BD1/BD2 (unknown origin) incubated for 2 hrs by TR-FRET assay
MDA-MB-231 [12] = assay: Induction of autophagy in human MDA-MB-231 cells xenografted in nude BALB/c mouse assessed as increase in LC3II expression at 25 to 50 mg/kg, po administered once daily for 19 days by immunohistochemistry analysis; type: functional, organism-based; conditions: dose lower […], dose upper 50.0 mg/kg, time 19.0 day
MDA-MB-468 [13] = assay: Antitumor activity against human MDA-MB-468 cells xenografted in po dosed nude BALB/c mouse assessed as tumor growth inhibition administered once daily for 19 days and measured every 3 days; type: functional, organism-based; conditions: dose lower […], dose upper 50.0 mg/kg, time 19.0 day
MDA-MB-468 [14] = assay: Induction of apoptosis in human MDA-MB-468 cells assessed as down regulation of Bcl2 after 24 hrs by Western blot analysis; type: functional, cell-based; conditions: dose 2.5-10 µM
MDA-MB-468 [15] = assay: Induction of autophagy in human MDA-MB-468 cells harboring GFP-mRFP-LC3 assessed as up regulation of beclin 1 level at 2.5 to 10 uM after 24 hrs by Western blot analysis; type: functional, cell-based; conditions: dose 2.5-10 µM
[16] = AUC(0 to t) in Sprague-Dawley rat at 1 mg/kg, iv by LC-MS analysis; type: ADME, organism-based; parameters: dose 1 mg/kg, route iv; conditions: in vivo
[17] = AUC(0 to infinity) in Sprague-Dawley rat at 1 mg/kg, iv by LC-MS analysis; type: ADME, organism-based; parameters: time infinity, dose 1 mg/kg, route iv; conditions: in vivo
MDA-MB-468 [18] = assay: Induction of autophagy in human MDA-MB-468 cells harboring GFP-mRFP-LC3 assessed as down regulation of p62 level at 5 uM after 24 hrs by Western blot analysis; type: functional, cell-based
[19] = target: Bromodomain-containing protein 3 (Homo sapiens, UniProt Q15059); assay: Inhibition of BRD3 BD1 (unknown origin) incubated for 2 hrs by TR-FRET assay
Chain of Bromodomain-containing protein 3 (Q15059 whole entry): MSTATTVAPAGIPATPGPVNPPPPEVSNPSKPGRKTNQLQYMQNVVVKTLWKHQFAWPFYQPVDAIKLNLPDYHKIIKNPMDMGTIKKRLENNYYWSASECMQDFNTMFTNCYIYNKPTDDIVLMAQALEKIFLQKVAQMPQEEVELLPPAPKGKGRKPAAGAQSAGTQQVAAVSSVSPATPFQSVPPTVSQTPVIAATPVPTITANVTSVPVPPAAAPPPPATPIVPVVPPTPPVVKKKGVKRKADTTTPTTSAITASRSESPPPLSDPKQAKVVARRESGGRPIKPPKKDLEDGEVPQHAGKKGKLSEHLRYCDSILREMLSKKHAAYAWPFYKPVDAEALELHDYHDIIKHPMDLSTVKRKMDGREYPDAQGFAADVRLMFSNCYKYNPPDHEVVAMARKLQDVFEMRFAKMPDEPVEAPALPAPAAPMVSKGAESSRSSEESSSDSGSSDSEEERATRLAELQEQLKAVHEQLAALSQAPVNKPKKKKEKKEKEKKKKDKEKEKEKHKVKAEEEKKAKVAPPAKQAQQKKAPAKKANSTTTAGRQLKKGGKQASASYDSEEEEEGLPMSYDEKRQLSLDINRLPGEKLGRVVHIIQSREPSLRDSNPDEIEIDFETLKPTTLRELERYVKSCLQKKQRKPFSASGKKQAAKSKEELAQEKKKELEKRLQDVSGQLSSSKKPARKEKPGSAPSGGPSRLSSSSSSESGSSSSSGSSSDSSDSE

MDA-MB-231 [20] = assay: Induction of autophagy in human MDA-MB-231 cells harboring GFP-mRFP-LC3 assessed as autophagic flux at 5 uM after 24 hrs by fluorescence microscopic analysis; type: functional, cell-based
MDA-MB-231 [21] = assay: Antiproliferative activity against JQ-1 resistant human MDA-MB-231 cells incubated for 24 hrs by MTT assay; type: functional, cell-based
Mus musculus [22] = assay: Down regulation of phosphorylation of AKT at S129 residue expression in BALB/c SCID mouse xenogrfted with human MDA-MB-231 cells at 25 to 50 mg/kg, po administered once daily for 19 days by Western blot analysis; type: functional, organism-based; conditions: dose lower […], dose upper 50.0 mg/kg, time 19.0 day
[23] = Oral bioavailability in Sprague-Dawley rat at 10 mg/kg by LC-MS analysis; type: ADME, organism-based; conditions: in vivo
Mus musculus [24] = assay: Down regulation of phosphorylation of AKT at S129 residue expression in BALB/c SCID mouse xenogrfted with human MDA-MB-231 cells at 25 to 50 mg/kg, po administered once daily for 19 days by immunohistochemistry analysis; type: functional, organism-based; conditions: dose lower […], dose upper 50.0 mg/kg, time 19.0 day
MDA-MB-231 [25] = assay: Induction of apoptosis in human MDA-MB-231 cells assessed as up regulation of cleaved caspase 3 after 24 hrs by Western blot analysis; type: functional, cell-based; conditions: dose 2.5-10 µM
Mus musculus [26] = assay: Toxicity in nude BALB/c mouse xenografted with human MDA-MB-468 cells assessed as change in body weight at 25 to 50 mg/kg, po administered once daily for 19 days and measured every 3 days; type: organism-based; conditions: in vivo, 456 h, dose 25-50 mg/kg, time 19 day
[27] = target: Casein kinase II subunit alpha (Homo sapiens, UniProt P68400); assay: Inhibition of CK2 (unknown origin)
Chain of Casein kinase II subunit alpha (P68400 whole entry): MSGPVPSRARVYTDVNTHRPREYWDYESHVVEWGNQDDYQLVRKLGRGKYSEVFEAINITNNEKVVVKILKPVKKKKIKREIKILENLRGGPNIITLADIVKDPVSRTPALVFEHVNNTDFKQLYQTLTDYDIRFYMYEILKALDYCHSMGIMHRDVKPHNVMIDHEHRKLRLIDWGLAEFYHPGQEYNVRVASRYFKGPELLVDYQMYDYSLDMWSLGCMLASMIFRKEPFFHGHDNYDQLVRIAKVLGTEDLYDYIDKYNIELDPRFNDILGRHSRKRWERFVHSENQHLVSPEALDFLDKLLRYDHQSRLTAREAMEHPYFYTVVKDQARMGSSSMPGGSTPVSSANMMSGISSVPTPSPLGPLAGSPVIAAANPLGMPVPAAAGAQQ

MDA-MB-231 [28] = assay: Induction of apoptosis in human MDA-MB-231 cells after 24 hrs by Annexin V-FITC/propidium iodide staining based flow cytometry; type: functional, cell-based; conditions: dose 2.5-10 µM
MDA-MB-468 [29] = assay: Induction of apoptosis in human MDA-MB-468 cells after 24 hrs by Hoechst 33258 staining fluorescence microscopic analysis; type: functional, cell-based; conditions: dose 2.5-10 µM
Mus musculus [30] = assay: Down regulation of c-Myc expression in BALB/c SCID mouse xenogrfted with human MDA-MB-231 cells at 25 to 50 mg/kg, po administered once daily for 19 days by Western blot analysis; type: functional, organism-based; conditions: dose lower […], dose upper 50.0 mg/kg, time 19.0 day
Mus musculus [31] = assay: Toxicity in nude BALB/c mouse xenografted with human MDA-MB-231 cells assessed as mortality at 25 to 50 mg/kg, po administered once daily for 19 days and measured every 3 days; type: organism-based; conditions: in vivo, 456 h, dose 25-50 mg/kg, time 19 day
Mus musculus [32] = assay: Toxicity in nude BALB/c mouse xenografted with human MDA-MB-468 cells assessed as morphological changes in liver at 25 to 50 mg/kg, po administered once daily for 19 days and measured every 3 days by H and E staining based assay; type: organism-based; conditions: in vivo, 456 h, dose 25-50 mg/kg, time 19 day
Mus musculus [33] = assay: Toxicity in nude BALB/c mouse xenografted with human MDA-MB-231 cells assessed as change in body weight at 25 to 50 mg/kg, po administered once daily for 19 days and measured every 3 days; type: organism-based; conditions: in vivo, 456 h, dose 25-50 mg/kg, time 19 day

For `COc1cc(OC)c2c(=O)[nH]c(-c3ccc(OCC(=O)Nc4ccc(N5CCN(C)CC5)c(Cl)c4)cc3)nc2c1`, the Activity (Mus musculus [1]) was “Non-Toxic”, the Activity (MCF-10A) was “Non-Toxic” and the Activity (Mus musculus [2]) was “Non-Toxic”. For the same molecule, the Activity (MDA-MB-231 [3]) was “inactive”, the Activity (Mus musculus [4]) was “Active” and the inhibition in vivo at 50 mg/kg (MDA-MB-231 [5]) was 63.8%. The IC50 [6] was greater than 10 µM, the Activity (Mus musculus [7]) was “Non-Toxic” and the Activity (Mus musculus [8]) was “Non-Toxic”. The Activity (Mus musculus [9]) was “Non-Toxic”, the AUC(0-inf) [10] was 2090 ng·h/mL and the IC50 [11] was 180 nM. For the same molecule, the Activity (MDA-MB-231 [12]) was “Active”, the Activity (MDA-MB-468 [13]) was “Active” and the Activity (MDA-MB-468 [14]) was “Dose-dependent effect”. For the same molecule, the Activity (MDA-MB-468 [15]) was “Active”, the AUC(0-t) [16] was 579 ng·h/mL and the AUC [17] was 588 ng·h/mL. For the same molecule, the Activity (MDA-MB-468 [18]) was “Active”, the IC50 [19] was 9.2 µM and the Activity (MDA-MB-231 [20]) was “Active”. For the same molecule, the Activity (MDA-MB-231 [21]) was “Active”, the Activity (Mus musculus [22]) was “Active” and the F [23] was 32.5%. The Activity (Mus musculus [24]) was “Active”, the Activity (MDA-MB-231 [25]) was “Dose-dependent effect” and the Activity (Mus musculus [26]) was “Non-Toxic”. For the same molecule, the IC50 [27] was 230 nM, the Activity (MDA-MB-231 [28]) was “Dose-dependent effect” and the Activity (MDA-MB-468 [29]) was “Dose-dependent effect”. For the same molecule, the Activity (Mus musculus [30]) was “Active”, the Activity (Mus musculus [31]) was “Non-Toxic” and the Activity (Mus musculus [32]) was “Non-Toxic”. The Activity (Mus musculus [33]) was “Non-Toxic”.
